Experimental findings from ChEMBL document CHEMBL1158674, “Jimenezin, a Novel Annonaceous Acetogenin from the Seeds of Rollinia mucosa Containing Adjacent TetrahydrofuranTetrahydropyran Ring Systems ,1” (J Nat Prod, 1998) are described below.

Converted amounts (≈) assume the structure as drawn.

One series deals with A549. Put plainly: Cytotoxicity against human A549 cells after 7 days by MTT assay. To be noted: A549, 168 h, read-out: ED50 (the source's name). It counts as functional. (Formazan colour is commonly taken as a measure of viable cells.)
Another series deals with Artemia. Put plainly: Toxicity in brine shrimp. Format: organism-based. To be noted: in vivo.
For a further series, the system named is A498. Put plainly: Cytotoxicity against human A498 cells after 7 days by MTT assay. Format: functional. Particulars: A498, 168 h, read-out: ED50 (the source's name).
The subject of the next series is MCF7. The experiment in a line: Cytotoxicity against human MCF7 cells after 7 days by MTT assay. Format: functional. Particulars: MCF7, 168 h, read-out: ED50 (the source's name).
For a further series, the system named is PC-3. Put plainly: Cytotoxicity against human PC3 cells after 7 days by MTT assay. Format: functional.
A further series relates to HT-29. Put plainly: Cytotoxicity against human HT-29 cells after 7 days by MTT assay. It counts as functional. To be noted: HT-29, 168 h, read-out: ED50 (the source's name).
Another series concerns MIA PaCa-2. Put plainly: Cytotoxicity against human MIAPaCa2 cells after 7 days by MTT assay. Format: functional.

As for `CCCCCCCCCC[C@@H]1O[C@H]([C@@H]2CC[C@H]([C@H](O)CCCCCCCCCC[C@@H](O)CC3=C[C@H](C)OC3=O)O2)CC[C@H]1O` [JIMENEZIN], the EC50 with A549 is 0.0164 µg/mL (≈ 0.0263 µM); with A498, 0.0494 µg/mL (≈ 0.0793 µM); in the series with MCF7, more than 0.1 µg/mL; in the series with HT-29, 0.00425 µg/mL (≈ 0.00682 µM). Besides, in the series on Artemia, the Activity is 5.7 ×10⁻³ ug/ml. For the same compound, the ED50 in the series with PC-3 is 2.77 ×10⁻⁴ ug/ml; in the series on MIA PaCa-2, 1.69 ×10⁻⁴ ug/ml.
Consider `COc1cccc2c1C(=O)c1c(O)c3c(c(O)c1C2=O)C[C@@](O)(C(=O)CO)C[C@@H]3O[C@H]1C[C@H](N)[C@H](O)[C@H](C)O1` [DOXORUBICIN], for which the EC50 with A549 was determined as 0.00447 µg/mL (≈ 0.00822 µM); with A498 it was 0.0011 µg/mL (≈ 0.00202 µM); in the series on MCF7, 0.0897 µg/mL (≈ 0.165 µM); in the series on PC-3 (Homo sapiens, PC-3, 168 h, read-out: ED50 (the source's name)), 0.0213 µg/mL (≈ 0.0392 µM); with HT-29, 0.0162 µg/mL (≈ 0.0298 µM); with MIA PaCa-2 (Homo sapiens, MIA PaCa-2, 168 h, read-out: ED50 (the source's name)), 0.00288 µg/mL (≈ 0.0053 µM).
